{"source": "patent US12172988B2", "about": "“Anticancer and antifungal splice modulators” (priority 2021, dated 2024)", "assay_type_in_all_cases": "cell-based, human", "key": {"[1]": {"system": "HCT116 colorectal carcinoma cells", "assay": "MTS cell viability / cell growth inhibition assay", "conditions": "for GI50: Homo sapiens, HCT-116, 72 h", "experimental": "With milligram quantities of 1a-1i at hand, we began our studies to evaluate the relative efficacy of each analogue using cell growth inhibition studies in HCT116 colorectal carcinoma cells. As reported in FIG. 3, GI50 values were collected for each analog after a 72 h treatment using the MTS cell viability assay (Table 12). Under these conditions, the natural FD-895 (1), 3S-FD-895 (1a) 17S-FD-895 (1d), 17-methoxy-FD-895 (1e) provided activities of <10 nM.\nHCT-116 cells was cultured in McCoy's 5a (Life Technologies) supplemented with 10% fetal bovine serum (FBS), 2 mM L-glutamine, and 100 U mL^−1 of penicillin and 100 μg mL^−1 of streptomycin at 37° C. in an atmosphere of 5% CO2. Compounds were dissolved in DMSO (MilliporeSigma). Cells were treated with 1-1j in media with ≥0.5% DMSO for 4-72 h.\nStudies were conducted in […] cell culture plates. HCT-116 plated at 5×10^3 cells/well were cultured for 24 h and then treated with analogs 1-1j for 4-72 h, then washed twice with 100 μL PBS. PBS (100 μL) was added to each well, followed by 20 μL of CellTiter Aqueous One Solution (Promega). After 2 h at 37° C., absorbance readings were taken at 490 nm (test wavelength) and 690 nm (reference wavelength). GI50 values were calculated in Prism (GraphPad) using greater 3 replicates.\nCells were treated with 1 or 1a-1j in media (McCoy's 5a (Life Technologies) supplemented with 10% FBS, 2 mM L-glutamine, and 100 U mL^−1 of penicillin and 100 μg mL^−1 of streptomycin 0.5% DMSO) for 4 h or 24 h. Untreated cells were considered were used as negative control. Total RNA was isolated using mirVana miRNA isolation kit (Life Technologies). A 1 μg sample of RNA was subjected to DNAseI from a TURBO DNA free kit (Life Technologies). The cDNA was prepared by using SuperScript III reverse transcriptase kit (Life Technologies). The amount of unspliced RNA for different genes was determined using Power SYBR Green PCR master mix (Applied Biosystems) by qPCR using specific primers for each gene. qPCR using 2.5 μM of each primer was performed on 5 ng of the obtained cDNA. qPCR conditions were as follows: 95° C. for 10 min for one cycle, then 95° C. for 10 min for one cycle, then 95° C. for 30 s, 55° C. for 60 s, 72° C. for 60 s, for 40 cycles using the MXPro. Quantification cycle (Cq) values were identified for each sample, and then RNA levels were calculated using 2-ΔΔCT method. GAPDH was used as a control for normalization. At least three replicates were conducted for each compound. Namely, all genes explored in this study were evaluated from the same cell cultures. Here, individual cultures were used for each compound explored and at least three replicates were used for each compound. While experimental variation occurred between the different compound treatments, the levels of the different intron retention, exon skipping or RNA expression were collected from the same cellular material. Statistics were calculated using a standard one-way ANOVA; p values were represented so that * signifies p<0.0001. HCT116 were treated with analogs 1-1j ranging from 0.1-5000 nM for 72 hours, then cell viability was measured using the MTS assay. GI50 values and confidence intervals were calculated using GraphPad (Table 12)."}, "[2]": {"system": "SF3A1", "assay": "qPCR splicing analysis, SF3A1 intron retention", "conditions": "for SF3A1 intron 6 retention (level of intron retention): HCT116, 4 h, 20 times GI50, qPCR relative to GAPDH", "experimental": "(§1) HCT116 tumor cells were treated with each analogue at 20 times the G150 value (Table 12) for 4 hours and then cellular RNA was isolated and purified for qPCR. Primers were designed to evaluate intron retention or exon skipping, direct responses to splice modulator treatment. Genes evaluated included those involved in splicing regulation (SF3A1, SF3A3, SF3B1, SF3B2), apoptosis (MCL-1L), protein folding (DNAJB1), and cell cycle regulation (AURKA, PLK-1) relative to the unspliced control GAPDH. For alternative splicing regulator (SF2), primers were designed to evaluate gene expression, which changes in response splice modulator treatment for SF2 relative to the unspliced control GAPDH. (−) denotes untreated cells.\nas §1, with “analogues” for “each analogue”, “100 nM (light grey), 250 nM (grey), or 500 nM (black)” for “20 times the G150 value (Table 12)”, “24 h” for “4 hours”, “(MCL-1L), and” for “(MCL-1L),”, “(DNAJB1),” for “(DNAJB1), and cell cycle regulation (AURKA, PLK-1)”, “(—)” for “(−)”\n(§2) Next, we turned our efforts to explore the ability of these analogues to modulate splicing. […] We treated cells for 4 h so that we could evaluate early changes in splicing activity, and then cellular RNA was isolated and purified for analyses by qPCR (FIG. 14). Most importantly, none of the concentrations tested led to significant changes in cell viability, ensuring that changes in gene expression were not due to cell death.\n(§3) For these studies, we evaluated the expression of genes involved in splicing regulation (SF3A1, SF3A3, SF3B1, SF3B2), apoptosis (MCL-1L), protein folding (DNAJB1), and cell cycle regulation (AURKA, PLK-1) relative to the unspliced control GAPDH. Primers were designed to evaluate intron retention or exon skipping, direct responses to splice modulator treatment. The master splicing regulator alternative splicing factor (SF2) was also evaluated, with the primers for this gene designed to evaluate overall gene expression, which changes in response to splice modulator treatment.\n(§4) From this 4 h study (FIG. 14), a small set of analogs (1, 1b, 1g, 1d, 1e, 1i and 1j) were selected to evaluate if effects on splicing when presented for a longer 24 h period. […] Using identical procedures as that used for 4 h, HCT116 cells were treated with three concentrations (100 nM, 250 nM and 500 nM) of each analog for 24 h. Multiple concentrations were used as a means to check further validate the use of the GI50 concentration in our prior study (FIG. 14). As before, none of the concentrations tested led to significant changes in cell viability over the 24-hour time window, ensuring that changes in gene expression were not due to cell death.\n(§5) Cells were treated with 1 or 1a-1j in media (McCoy's 5a (Life Technologies) supplemented with 10% FBS, 2 mM L-glutamine, and 100 U mL^−1 of penicillin and 100 μg mL^−1 of streptomycin 0.5% DMSO) for 4 h or 24 h. Untreated cells were considered were used as negative control. Total RNA was isolated using mirVana miRNA isolation kit (Life Technologies). A 1 μg sample of RNA was subjected to DNAseI from a TURBO DNA free kit (Life Technologies). The cDNA was prepared by using SuperScript III reverse transcriptase kit (Life Technologies). […]"}, "[3]": {"system": "SF3B2", "assay": "qPCR splicing analysis, SF3B2 intron retention", "conditions": "for SF3B2 intron retention (level of intron retention): HCT116, 4 h, 20 times GI50, qPCR relative to GAPDH; for SF3B2 intron retention: HCT116, 24 h, 100, 250, 500 nM, compared to 1", "experimental": "as §1\nas §1, with “analogues” for “each analogue”, “100 nM (light grey), 250 nM (grey), or 500 nM (black)” for “20 times the G150 value (Table 12)”, “24 h” for “4 hours”, “(MCL-1L), and” for “(MCL-1L),”, “(DNAJB1),” for “(DNAJB1), and cell cycle regulation (AURKA, PLK-1)”, “(—)” for “(−)”\nas §2, §3, §4, §5"}}, "note": "“Also recorded” adds a separate entry of the source. Read-outs that look alike come from different tables or passages of the source.", "data": [{"smiles": "CC[C@@H](OC)[C@H](C)[C@H]1O[C@@H]1[C@@H](O)[C@H](C)/C=C/C=C(\\C)[C@H]1OC(=O)C[C@H](O)CC[C@@](C)(O)[C@@H](OC(C)=O)/C=C/[C@@H]1C", "note": "[Analog 1j, 17S,20S,21R-FD-895]", "values": [{"measurement": "GI50", "setting": "[1]; read-out: GI50 value", "result": 262, "unit": "nM"}, {"measurement": "GI50", "setting": "[1]; read-out: GI50 value (text)", "result": 260, "unit": "nM"}, {"measurement": "SF3A1 intron 6 retention (level of intron retention)", "setting": "[2]", "result": "more effective than 1"}, {"measurement": "SF3B2 intron retention (level of intron retention)", "setting": "[3]", "result": "improved efficacy"}]}, {"smiles": "CC[C@H](OC)[C@@H](C)[C@H]1O[C@@H]1[C@@H](O)[C@H](C)/C=C/C=C(\\C)[C@H]1OC(=O)C[C@@H](O)CC[C@@](C)(O)[C@@H](OC(C)=O)/C=C/[C@@H]1C", "note": "[Analog 1g, 3S,17S-FD-895]", "values": [{"measurement": "fold less effective compared to 1a or 1d", "setting": "[1]; HCT116 GI50, compared to 1a or 1d", "result": 60, "unit": "fold"}, {"measurement": "fold less active (GI50) than 1", "setting": "[1]; HCT116 cell growth inhibition, compared to 1", "result": 75, "unit": "fold"}, {"measurement": "GI50", "setting": "[1]; read-out: GI50 value", "result": 131, "unit": "nM"}, {"measurement": "GI50", "setting": "[1]; read-out: GI50 value (text)", "result": 130, "unit": "nM"}, {"measurement": "SF3B2 intron retention", "setting": "[3]", "result": "loss in intron retention"}]}, {"smiles": "CC[C@H](OC)[C@@H](C)[C@@H]1O[C@H]1[C@@H](O)[C@H](C)/C=C/C=C(\\C)[C@H]1OC(=O)C[C@H](O)CC[C@@](C)(O)[C@@H](OC(C)=O)/C=C/[C@@H]1C", "note": "[Analog 1i, 17S,18S,19S-FD-895]", "values": [{"measurement": "GI50", "setting": "[1]; read-out: GI50 value", "result": 446, "unit": "nM"}, {"measurement": "GI50", "setting": "[1]; read-out: GI50 value (text)", "result": 450, "unit": "nM"}, {"measurement": "SF3A1 intron 6 retention (level of intron retention)", "setting": "[2]", "result": "more effective than 1"}, {"measurement": "SF3B2 intron retention (level of intron retention)", "setting": "[3]", "result": "improved efficacy"}]}, {"smiles": "CC[C@H](OC)[C@@H](C)[C@H]1O[C@@H]1[C@@H](O)[C@H](C)/C=C/C=C(\\C)[C@H]1OC(=O)C[C@H](O)CC[C@@](C)(O)[C@@H](OC(C)=O)/C=C/[C@@H]1C", "note": "[Analog 1d, 17S-FD-895]", "values": [{"measurement": "cell growth inhibitory activity compared to FD-895", "setting": "[1]; HCT-116 cells", "result": "retained potency; also recorded: comparable inhibitor of cell growth as 1"}, {"measurement": "GI50", "setting": "[1]; read-out: GI50 value", "result": 2.06, "unit": "nM"}, {"measurement": "GI50", "setting": "[1]; read-out: GI50 value (text)", "result": "< 10", "unit": "nM"}, {"measurement": "SF3A1 intron retention", "setting": "[2]; HCT116, 24 h, 100, 250, 500 nM, compared to 1", "result": "concentration dependent increased intron retention"}, {"measurement": "SF3B2 intron retention (level of intron retention)", "setting": "[3]", "result": "improved efficacy"}, {"measurement": "SF3B2 intron retention", "setting": "[3]", "result": "concentration dependent increased intron retention"}]}]}
